What was measured:
α-glucosidase [1] = molecular target: T1, α-glucosidase (Saccharomyces cerevisiae, UniProt P53341); experiment: kinetic analysis of the inhibition of α-glucosidase; format: biochemical; details: Figure 4
Procedure: (§1) Biological assays. The assays for α-glucosidase and MptpB inhibition inhibitory activities were carried out as described previously.

α-glucosidase [2] = molecular target: T1, α-glucosidase; experiment: α-glucosidase inhibitory activity assay; format: biochemical; details: qualitative statement
Procedure: as §1

T1 sequence (P53341 whole entry): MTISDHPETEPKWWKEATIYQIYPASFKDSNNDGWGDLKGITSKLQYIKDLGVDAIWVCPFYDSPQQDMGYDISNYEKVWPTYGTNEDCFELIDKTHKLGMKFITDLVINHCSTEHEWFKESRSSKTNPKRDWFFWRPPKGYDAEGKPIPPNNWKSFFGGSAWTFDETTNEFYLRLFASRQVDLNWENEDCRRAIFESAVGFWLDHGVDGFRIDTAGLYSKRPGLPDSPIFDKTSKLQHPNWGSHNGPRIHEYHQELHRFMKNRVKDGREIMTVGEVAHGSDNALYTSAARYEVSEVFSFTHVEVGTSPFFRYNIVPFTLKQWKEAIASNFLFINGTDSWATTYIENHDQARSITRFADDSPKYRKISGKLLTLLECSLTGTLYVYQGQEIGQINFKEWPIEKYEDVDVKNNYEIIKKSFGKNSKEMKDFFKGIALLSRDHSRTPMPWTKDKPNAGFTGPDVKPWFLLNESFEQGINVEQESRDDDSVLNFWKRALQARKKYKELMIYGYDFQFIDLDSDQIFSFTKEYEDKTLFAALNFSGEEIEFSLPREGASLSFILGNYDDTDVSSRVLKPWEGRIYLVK

Row | SMILES | type of α-glucosidase inhibition (kinetic studies) (α-glucosidase [1]) | α-glucosidase inhibitory activity (in words) (α-glucosidase [2])
1 | Cc1cc(O)c(C)c2c1Oc1c(O)c(O)cc(C)c1C(=O)O2 [Compound 2, Botryorhodine F] | noncompetitive inhibitors | –
2 | Cc1cc(O)cc2c1Oc1c(CO)c(O)cc(C)c1C(=O)O2 [Compound 6, botryorhodine D] | noncompetitive inhibitors | –
3 | O=C(O)CCCCN1Cc2c(O)cc(O)cc2C1=O [Compound 7, Meyeroguilline A] | – | promising α-glucosidase inhibitory activity
4 | O=C1NCc2c(O)cc(O)cc21 [Compound 8, 4,6-dihydroxy-2,3-dihydro-1H-isoindol-1-one] | – | moderate to weak activities
5 | O=C1NC(=O)c2c(O)cc(O)cc21 [Compound 10, 4,6-dihydroxy-1H-isoindole-1,3(2H)-dione] | – | moderate to weak activities
